Reference: ChEMBL document CHEMBL1201862, “PubChem BioAssay data set” (2004)
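Assay format: 96-well plates, 48-hour exposure. At the GI50, growth is halved.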 Activity calls are given as the source filed them. Cut-off read from the data, not from the text of the source: active = GI50 up to about 1.1 µM and inactive = higher.

Columns and labels:
Assay in all cases: growth of human tumour cells (NCI), 48 h
786-0 = system: 786-0
A498 = system: A498
A549 = system: A549
ACHN = system: ACHN
BT-549 = system: BT-549
CAKI-1 = system: CAKI-1
COLO 205 = system: COLO 205
DU-145 = system: DU-145
EKVX = system: EKVX
HCT-116 = system: HCT-116
HCT-15 = system: HCT-15
HL-60 = system: HL-60
HOP-62 = system: HOP-62
HOP-92 = system: HOP-92
HT-29 = system: HT-29
Hs-578T = system: Hs-578T
IGROV-1 = system: IGROV-1
K562 = system: K562
KM12 = system: KM12
M14 = system: M14
MCF7 = system: MCF7
MDA-MB-231 = system: MDA-MB-231
MDA-MB-435 = system: MDA-MB-435
MOLT-4 = system: MOLT-4
Malme-3M = system: Malme-3M
NCI-H226 = system: NCI-H226
NCI-H23 = system: NCI-H23
NCI-H460 = system: NCI-H460
NCI-H522 = system: NCI-H522
NCI/ADR-RES = system: NCI/ADR-RES
OVCAR-3 = system: OVCAR-3
OVCAR-4 = system: OVCAR-4
OVCAR-5 = system: OVCAR-5
OVCAR-8 = system: OVCAR-8
PC-3 = system: PC-3
RPMI-8226 = system: RPMI-8226
RXF 393 = system: RXF 393
SF-268 = system: SF-268
SF-295 = system: SF-295
SF-539 = system: SF-539
SK-MEL-28 = system: SK-MEL-28
SK-MEL-2 = system: SK-MEL-2
SK-MEL-5 = system: SK-MEL-5
SK-OV-3 = system: SK-OV-3
SN12C = system: SN12C
SNB-19 = system: SNB-19
SNB-75 = system: SNB-75
SR = system: SR
SW-620 = system: SW-620
T47D = system: T47D
TK-10 = system: TK-10
U-251 = system: U-251
UACC-257 = system: UACC-257
UACC-62 = system: UACC-62
UO-31 = system: UO-31
CCRF-CEM = system: CCRF-CEM
HCC 2998 = system: HCC 2998
LOX IMVI = system: LOX IMVI
MDA-N = system: MDA-N

Measured: GI50

COc1ccc(CNc2nc(NCc3ccc(OC)cc3)nc(Nc3ccccc3)n2)cc1
inactive: 786-0 49.7 µM | A498 39.1 µM | A549 9.86 µM | ACHN 13.1 µM | BT-549 > 100 µM | CAKI-1 3.35 µM | COLO 205 4.82 µM | DU-145 37.7 µM | EKVX > 100 µM | HCT-116 11.4 µM | HL-60 2.44 µM | HOP-62 > 100 µM | HOP-92 > 100 µM | HT-29 1.93 µM | Hs-578T 30.1 µM | IGROV-1 9.71 µM | K562 5 µM | KM12 3.37 µM | M14 45.7 µM | MCF7 5.18 µM | MDA-MB-231 24.1 µM | MDA-MB-435 2.22 µM | MOLT-4 3.01 µM | Malme-3M 6.35 µM | NCI-H226 64.4 µM | NCI-H23 12.4 µM | NCI-H460 7.16 µM | NCI-H522 5.73 µM | NCI/ADR-RES 9.14 µM | OVCAR-3 2.62 µM | OVCAR-4 8.87 µM | OVCAR-5 > 100 µM | OVCAR-8 20.3 µM | PC-3 5.69 µM | RPMI-8226 8.34 µM | RXF 393 > 100 µM | SF-268 > 100 µM | SF-295 2.58 µM | SF-539 14.2 µM | SK-MEL-28 4.72 µM | SK-MEL-2 > 100 µM | SK-MEL-5 8.57 µM | SK-OV-3 61.5 µM | SN12C 46 µM | SNB-19 17.8 µM | SNB-75 4.13 µM | SW-620 6.46 µM | T47D > 100 µM | TK-10 21.5 µM | U-251 16.7 µM | UACC-257 35.1 µM | UACC-62 4.14 µM | UO-31 > 100 µM
3.39 µM: HCT-15
active: SR 1.11 µM

CC(SC(=S)N1CCCC1)C(=O)Nc1nnc(-c2ccc(Cl)cc2)o1 (centres undefined)
inactive: 786-0 14.1 µM | A498 34 µM | A549 31 µM | ACHN 33 µM | BT-549 39.8 µM | COLO 205 37.6 µM | DU-145 44.2 µM | HCC 2998 57.4 µM | HCT-116 19.5 µM | HOP-62 34.1 µM | HOP-92 65.8 µM | HT-29 21.8 µM | Hs-578T 44.8 µM | IGROV-1 32 µM | K562 8.85 µM | LOX IMVI 18.7 µM | M14 15.5 µM | MCF7 33.7 µM | MDA-MB-231 40 µM | MDA-MB-435 36.1 µM | Malme-3M 23.8 µM | NCI-H226 40.3 µM | NCI-H23 39.5 µM | NCI-H460 39.4 µM | NCI/ADR-RES 22.8 µM | OVCAR-3 32.7 µM | OVCAR-4 35.5 µM | OVCAR-5 33.2 µM | OVCAR-8 40.1 µM | PC-3 35.6 µM | RPMI-8226 14.6 µM | RXF 393 55.2 µM | SF-268 18 µM | SF-539 85.3 µM | SK-MEL-28 46.7 µM | SK-MEL-2 30.5 µM | SK-MEL-5 29.5 µM | SK-OV-3 52.7 µM | SN12C 17.7 µM | SNB-19 35.6 µM | SNB-75 45.9 µM | SW-620 36.6 µM | T47D 48.8 µM | TK-10 50.4 µM | U-251 29.9 µM | UACC-257 40.4 µM | UACC-62 30.5 µM | UO-31 19.2 µM
active: CCRF-CEM < 0.01 µM | HL-60 < 0.01 µM
17 µM: HCT-15

COc1cc(C2SCC(=O)N2c2cccc(Cl)c2)cc(OC)c1OC (centres undefined)
inactive: 786-0 51.6 µM | A498 > 100 µM | A549 > 100 µM | ACHN > 100 µM | BT-549 26.4 µM | CAKI-1 55.7 µM | CCRF-CEM 27.7 µM | COLO 205 > 100 µM | DU-145 63.7 µM | EKVX 76.9 µM | HCC 2998 > 100 µM | HCT-116 58.9 µM | HL-60 35.3 µM | HOP-92 31.2 µM | HT-29 > 100 µM | Hs-578T > 100 µM | IGROV-1 65.9 µM | K562 36.1 µM | KM12 47.8 µM | LOX IMVI 70.1 µM | M14 84.9 µM | MCF7 46.8 µM | MDA-MB-231 > 100 µM | MDA-MB-435 29.5 µM | MDA-N 17.2 µM | MOLT-4 37.2 µM | NCI-H226 > 100 µM | NCI-H23 > 100 µM | NCI-H460 > 100 µM | NCI-H522 21.2 µM | NCI/ADR-RES 71.9 µM | OVCAR-4 54.6 µM | OVCAR-5 > 100 µM | OVCAR-8 > 100 µM | PC-3 > 100 µM | RPMI-8226 45.7 µM | SF-268 > 100 µM | SF-295 43.7 µM | SF-539 > 100 µM | SK-MEL-28 > 100 µM | SK-MEL-2 > 100 µM | SK-MEL-5 > 100 µM | SK-OV-3 > 100 µM | SN12C 56.9 µM | SNB-19 11.4 µM | SR 28.4 µM | SW-620 > 100 µM | TK-10 > 100 µM | U-251 > 100 µM | UACC-257 > 100 µM | UACC-62 11.3 µM | UO-31 58.2 µM
72.3 µM: HCT-15
